Reference: patent EP4238972A1, “SUBSTITUTED 1,2,4-THIADIAZOLYL PICOLINAMIDES, SALTS OR N-OXIDES THEREOF AND THEIR USE AS HERBICIDALLY ACTIVE SUBSTANCES” (Bayer AG, priority 2022, dated 2023)

Legend:
Type in all cases: in vivo
[1] = system: Amaranthus retroflexus; experiment: Herbicidal post-emergence action; conditions: visual assessment after ca. 3 weeks vs untreated controls
From the text: (§1) Seeds of mono- and dicotyledonous weed plants were sown in plastic pots (double sowings with one species of mono- and one species of dicotyledonous weed plants per pot), in sandy loam, covered with soil and grown under controlled growth conditions. 2 to 3 weeks after sowing, the test plants were sprayed in the single-leaf stage. The compounds according to the invention, formulated in the form of wettable powders (WP) or as emulsifiable concentrates (EC), were sprayed onto the green plant parts as an aqueous suspension or as an emulsion, with the addition of 0.5% of an additive, at an application rate of 600 litres of water per hectare (converted). The test plants were placed in the greenhouse for ca. 3 weeks under optimum growth conditions, and then the effect of the preparations is assessed visually in comparison with untreated controls (herbicidal effect in percent (%): 100% effect = plants have died, 0% effect = as control plants). Seeds of mono- and dicotyledonous weed plants were sown in plastic pots (double sowings with one species of mono- and one species of dicotyledonous weed plants per pot), in sandy loam, covered with soil and grown under controlled growth conditions. 2 to 3 weeks after sowing, the test plants were sprayed in the single-leaf stage. The compounds according to the invention, formulated in the form of wettable powders (WP) or as emulsifiable concentrates (EC), are sprayed onto the green plant parts as an aqueous suspension or as an emulsion, with the addition of 0.5% of an additive, at an application rate of 600 litres of water per hectare (converted). The test plants were placed in the greenhouse for ca. 3 weeks under optimum growth conditions, and then the effect of the preparations is assessed visually in comparison with untreated controls (herbicidal effect in percent (%): 100% effect = plants have died, 0% effect = as control plants).

[2] = system: Veronica persica; experiment: Herbicidal post-emergence action; conditions: visual assessment after ca. 3 weeks vs untreated controls
From the text: as §1

[3] = system: Poa annua; experiment: Herbicidal post-emergence action; conditions: visual assessment after ca. 3 weeks vs untreated controls
From the text: as §1

[4] = system: Setaria viridis; experiment: Herbicidal post-emergence action; conditions: visual assessment after ca. 3 weeks vs untreated controls
From the text: as §1

[5] = system: Stellaria media; experiment: Herbicidal post-emergence action; conditions: 1280 g/ha, visual assessment after ca. 3 weeks vs untreated controls
From the text: (§2) Seeds of mono- and dicotyledonous weed plants were sown in plastic pots (double sowings with one species of mono- and one species of dicotyledonous weed plants per pot), in sandy loam, covered with soil and grown under controlled growth conditions. 2 to 3 weeks after sowing, the test plants were sprayed in the single-leaf stage. The compounds according to the invention, formulated in the form of wettable powders (WP) or as emulsifiable concentrates (EC), were sprayed onto the green plant parts as an aqueous suspension or as an emulsion, with the addition of 0.5% of an additive, at an application rate of 600 litres of water per hectare (converted). The test plants were placed in the greenhouse for ca. 3 weeks under optimum growth conditions, and then the effect of the preparations is assessed visually in comparison with untreated controls (herbicidal effect in percent (%): 100% effect = plants have died, 0% effect = as control plants).

[6] = system: Echinochloa crus-galli; experiment: Herbicidal post-emergence action; conditions: 1280 g/ha, visual assessment after ca. 3 weeks vs untreated controls
From the text: as §2

[7] = system: Echinochloa crus-galli; experiment: Herbicidal pre-emergence action; conditions: 1280 g/ha, visual grading after ca. 3 weeks vs untreated controls
From the text: (§3) Seeds of mono- and dicotyledonous weed plants were sown in plastic pots (double sowings with one species of mono- and one species of dicotyledonous weed plants per pot), in sandy loam, and covered with soil. The compounds according to the invention, formulated in the form of wettable powders (WP) or as emulsifiable concentrates (EC), were applied to the surface of the covering soil as an aqueous suspension or as an emulsion, with the addition of 0.5% of an additive, at an application rate of 600 litres of water per hectare (converted). Following treatment, the pots were placed in a greenhouse and kept under optimum growth conditions for the test plants. The visual grading of the damage to the test plants is carried out after ca. 3 weeks in comparison to untreated controls (herbicidal effect in percent (%): 100% effect = plants have died, 0% effect = as control plants).

[8] = system: Amaranthus retroflexus; experiment: Herbicidal pre-emergence action; conditions: visual grading after ca. 3 weeks vs untreated controls
From the text: as §3, with “plants). Seeds of mono- and dicotyledonous weed plants were sown in plastic pots (double sowings with one species of mono- and one species of dicotyledonous weed plants per pot), in sandy loam, and covered with soil. The compounds according to the invention, formulated in the form of wettable powders (WP) or as emulsifiable concentrates (EC), were applied to the surface of the covering soil as an aqueous suspension or as an emulsion, with the addition of 0.5% of an additive, at an application rate of 600 litres of water per hectare (converted). Following treatment, the pots were placed in a greenhouse and kept under optimum growth conditions for the test plants. The visual grading of the damage to the test plants is carried out after ca. 3 weeks in comparison to untreated controls (herbicidal effect in percent (%): 100% effect = plants have died, 0% effect = as control plants).” for “plants).”

[9] = system: Matricaria inodora; experiment: Herbicidal pre-emergence action; conditions: visual grading after ca. 3 weeks vs untreated controls
From the text: as §3, with “plants). Seeds of mono- and dicotyledonous weed plants were sown in plastic pots (double sowings with one species of mono- and one species of dicotyledonous weed plants per pot), in sandy loam, and covered with soil. The compounds according to the invention, formulated in the form of wettable powders (WP) or as emulsifiable concentrates (EC), were applied to the surface of the covering soil as an aqueous suspension or as an emulsion, with the addition of 0.5% of an additive, at an application rate of 600 litres of water per hectare (converted). Following treatment, the pots were placed in a greenhouse and kept under optimum growth conditions for the test plants. The visual grading of the damage to the test plants is carried out after ca. 3 weeks in comparison to untreated controls (herbicidal effect in percent (%): 100% effect = plants have died, 0% effect = as control plants).” for “plants).”

[10] = system: Stellaria media; experiment: Herbicidal pre-emergence action; conditions: visual grading after ca. 3 weeks vs untreated controls
From the text: as §3, with “plants). Seeds of mono- and dicotyledonous weed plants were sown in plastic pots (double sowings with one species of mono- and one species of dicotyledonous weed plants per pot), in sandy loam, and covered with soil. The compounds according to the invention, formulated in the form of wettable powders (WP) or as emulsifiable concentrates (EC), were applied to the surface of the covering soil as an aqueous suspension or as an emulsion, with the addition of 0.5% of an additive, at an application rate of 600 litres of water per hectare (converted). Following treatment, the pots were placed in a greenhouse and kept under optimum growth conditions for the test plants. The visual grading of the damage to the test plants is carried out after ca. 3 weeks in comparison to untreated controls (herbicidal effect in percent (%): 100% effect = plants have died, 0% effect = as control plants).” for “plants).”

[11] = system: Poa annua; experiment: Herbicidal pre-emergence action; conditions: visual grading after ca. 3 weeks vs untreated controls
From the text: as §3, with “plants). Seeds of mono- and dicotyledonous weed plants were sown in plastic pots (double sowings with one species of mono- and one species of dicotyledonous weed plants per pot), in sandy loam, and covered with soil. The compounds according to the invention, formulated in the form of wettable powders (WP) or as emulsifiable concentrates (EC), were applied to the surface of the covering soil as an aqueous suspension or as an emulsion, with the addition of 0.5% of an additive, at an application rate of 600 litres of water per hectare (converted). Following treatment, the pots were placed in a greenhouse and kept under optimum growth conditions for the test plants. The visual grading of the damage to the test plants is carried out after ca. 3 weeks in comparison to untreated controls (herbicidal effect in percent (%): 100% effect = plants have died, 0% effect = as control plants).” for “plants).”

[12] = system: Veronica persica; experiment: Herbicidal pre-emergence action; conditions: 1280 g/ha, visual grading after ca. 3 weeks vs untreated controls
From the text: as §3

[13] = system: Kochia scoparia; experiment: Herbicidal post-emergence action; conditions: visual assessment after ca. 3 weeks vs untreated controls
From the text: as §1

[14] = system: Matricaria inodora; experiment: Herbicidal post-emergence action; conditions: 1280 g/ha, visual assessment after ca. 3 weeks vs untreated controls
From the text: as §2

[15] = system: Lolium rigidum; experiment: Herbicidal post-emergence action; conditions: 1280 g/ha, visual assessment after ca. 3 weeks vs untreated controls
From the text: as §2

[16] = system: Alopecurus myosuroides; experiment: Herbicidal post-emergence action; conditions: 1280 g/ha, visual assessment after ca. 3 weeks vs untreated controls
From the text: as §2

[17] = system: Setaria viridis; experiment: Herbicidal pre-emergence action; conditions: 1280 g/ha, visual grading after ca. 3 weeks vs untreated controls
From the text: as §3

[18] = system: Lolium rigidum; experiment: Herbicidal pre-emergence action; conditions: visual grading after ca. 3 weeks vs untreated controls
From the text: as §3, with “plants). Seeds of mono- and dicotyledonous weed plants were sown in plastic pots (double sowings with one species of mono- and one species of dicotyledonous weed plants per pot), in sandy loam, and covered with soil. The compounds according to the invention, formulated in the form of wettable powders (WP) or as emulsifiable concentrates (EC), were applied to the surface of the covering soil as an aqueous suspension or as an emulsion, with the addition of 0.5% of an additive, at an application rate of 600 litres of water per hectare (converted). Following treatment, the pots were placed in a greenhouse and kept under optimum growth conditions for the test plants. The visual grading of the damage to the test plants is carried out after ca. 3 weeks in comparison to untreated controls (herbicidal effect in percent (%): 100% effect = plants have died, 0% effect = as control plants).” for “plants).”

SMILES | herbicidal effect AMARE ([1]; 320 g/ha) [%] | herbicidal effect AMARE ([1]; 1280 g/ha) [%] | herbicidal effect VERPE ([2]; 320 g/ha) [%] | herbicidal effect VERPE ([2]; 1280 g/ha) [%] | herbicidal effect POAAN ([3]; 320 g/ha) [%] | herbicidal effect POAAN ([3]; 1280 g/ha) [%] | herbicidal effect SETVI ([4]; 1280 g/ha) [%] | herbicidal effect STEME [5] [%] | herbicidal effect ECHCG [7] [%] | herbicidal effect AMARE ([8]; 1280 g/ha) [%] | herbicidal effect MATIN ([9]; 1280 g/ha) [%] | herbicidal effect STEME ([10]; 1280 g/ha) [%] | herbicidal effect POAAN ([11]; 1280 g/ha) [%] | herbicidal effect KCHSC ([13]; 320 g/ha) [%] | herbicidal effect KCHSC ([13]; 1280 g/ha) [%] | herbicidal effect LOLRI ([18]; 1280 g/ha) [%] | herbicidal effect POAAN ([11]; 320 g/ha) [%] | further results
O=C(Nc1ncns1)c1nc(Cl)ccc1Br [Example I-039, 3-bromo-6-chloro-N-(1,2,4-thiadiazol-5-yl)pyridine-2-carboxamide] | 100 | 100 | 90 | 100 | 90 | 90 | 90 | 90 | 90 | 100 | 100 | 90 | 90 | – | – | – | – | herbicidal effect ECHCG [6]: 90%
O=C(Nc1ncns1)c1ncc(Cl)cc1C(F)(F)F [Example I-036, 5-chloro-N-(1,2,4-thiadiazol-5-yl)-3-(trifluoromethyl)pyridine-2-carboxamide] | – | 90 | – | 90 | – | – | – | – | – | 90 | – | – | – | – | – | – | – | herbicidal effect VERPE [12]: 90%
O=C(Nc1nc(Cl)ns1)c1nc(F)ccc1Br [Example I-017, 3-bromo-N-(3-chloro-1,2,4-thiadiazol-5-yl)-6-fluoro-pyridine-2-carboxamide] | 90 | 90 | 90 | 90 | 90 | 90 | 90 | 90 | 90 | 100 | 100 | 90 | 90 | 90 | 90 | 90 | 90 | herbicidal effect SETVI ([4]; 320 g/ha): 90%; herbicidal effect MATIN [14]: 90%; herbicidal effect LOLRI [15]: 90%; herbicidal effect ALOMY [16]: 90%; herbicidal effect SETVI [17]: 100%; herbicidal effect MATIN ([9]; 320 g/ha): 100%; herbicidal effect LOLRI ([18]; 320 g/ha): 90%; herbicidal effect STEME ([10]; 320 g/ha): 90%
O=C(Nc1ncns1)c1nc(Cl)ccc1OC(F)(F)F [Example I-013, 6-chloro-N-(1,2,4-thiadiazol-5-yl)-3-(trifluoromethoxy)pyridine-2-carboxamide] | – | 100 | – | – | 90 | 100 | – | 90 | – | 100 | – | 90 | 100 | 90 | 100 | 90 | 100 | herbicidal effect AMARE ([8]; 320 g/ha): 90%
